Entries after “also recorded” stand apart in the source; their conditions may differ. No end group written: not given here.
Tests used:
Acute T cell leukemia = experiment: PCD induction in primary cancer cells; assay type: cell-based
JM-1 = experiment: PCD induction in cancer cell lines, Annexin V labeling; assay type: cell-based; settings: JM-1 (Immunoblastic B cell lymphoma), 400 μM 4N1K, 1 h
Experimental: (§1) We used Annexin V-FITC (BD Biosciences) for the assessment of phosphatidylserine (PS) exposure. Data analysis was carried out in a FACSCanto II (BD Biosciences) on the total cell population (10,000 cells). Data were analyzed using FlowJo software (TreeStar).

RAJI = experiment: as above; assay type: cell-based; settings: RAJI (Burkitt's lymphoma), 400 μM 4N1K, 1 h
Experimental: as §1

MDA-MB-231 = experiment: as above; assay type: cell-based; settings: MDA-MB-231 (Adenocarcinoma), 400 μM 4N1K, 1 h
Experimental: as §1

A549 = experiment: as above; assay type: cell-based; settings: A549 (Lung carcinoma), 400 μM 4N1K, 1 h
Experimental: as §1

LNCAP = experiment: as above; assay type: cell-based; settings: LNCAP (Prostate cancer), 400 μM 4N1K, 1 h
Experimental: as §1

RPMI 8866 = experiment: as above; assay type: cell-based; settings: RPMI 8866 (B lymphocytic cell line), 400 μM 4N1K, 1 h
Experimental: as §1

AU-565 = experiment: as above; assay type: cell-based; settings: AU-565 (Breast adenocarcinoma), 400 μM 4N1K, 1 h
Experimental: as §1

RAMOS = experiment: as above; assay type: cell-based; settings: RAMOS (Burkitt's lymphoma), 400 μM 4N1K, 1 h
Experimental: as §1

RPMI 8226 = experiment: as above; assay type: cell-based; settings: RPMI 8226 (B lymphocytic cell line), 400 μM 4N1K, 1 h
Experimental: as §1

U937 = experiment: as above; assay type: cell-based; settings: U937 (Diffuse histiocytic lymphoma), 400 μM 4N1K, 1 h
Experimental: as §1

CEM = experiment: as above; assay type: cell-based; settings: CEM (Acute lymphoblastic leukemia), 400 μM 4N1K, 1 h
Experimental: as §1

OV10 = experiment: as above; assay type: cell-based; settings: OV10 (Ovarian Carcinoma), 400 μM 4N1K, 1 h
Experimental: as §1

MCF-7 = experiment: as above; assay type: cell-based; settings: MCF-7 (Breast adenocarcinoma), 400 μM 4N1K, 1 h
Experimental: as §1

HELA = experiment: as above; assay type: cell-based; settings: HELA (Cervical cancer), 400 μM 4N1K, 1 h
Experimental: as §1

JURKAT = experiment: as above; assay type: cell-based; settings: JURKAT (Acute T cell leukemia), 400 μM 4N1K, 1 h
Experimental: as §1

MEC-1 = experiment: as above; assay type: cell-based; settings: MEC-1 (Chronic Lymphocytic Leukemia), 400 μM 4N1K, 1 h
Experimental: as §1

HBL-100 = experiment: as above; assay type: cell-based; settings: HBL-100 (Breast epithelial cells with transformed morphology), 400 μM 4N1K, 1 h
Experimental: as §1

Colon carcinoma = experiment: PCD induction in primary cancer cells; assay type: cell-based
[1] = tested on: B cells isolated from CLL patients; experiment: PCD (phosphatidylserine exposure, Annexin-V-FITC, flow cytometry) in B cells from CLL patients; assay type: cell-based, human
From the text: (§2) After authorized consent forms fresh blood samples will be collected from CLL patients diagnosed according to classical morphological and immunophenotypic criteria at Pitié-Salpêtrière Hospital (Service d'Hématologie Biologique). Normal B lymphocytes will be obtained from EFS (Etablisement Français du Sang). The Institutional Ethics Committee at Pitie-Salpetriere Hospital approved the present study. Mononuclear cells were purified from blood samples using a standard Ficoll-Hypaque gradient, and B cells were positively or negatively selected by magnetic beads coupled to anti-CD19 monoclonal antibody (positive selection) or to anti-CD16, CD3, and CD14 monoclonal antibodies (negative depletion) (Miltenyi Biotech). No changes were found in the cell death response of positively or negatively selected cells. Purified B-lymphocytes were cultured in complete medium (RPMI 1640 medium supplemented with 10% fetal calf serum, 2 mM L-glutamine, and 100 U/ml penicillin-streptomycin). Unless specified, reagents were from Sigma-Aldrich.
To induce cell death B-lymphocytes were cultured 1 h with the TSP-1 derived peptide 4N1K (300 μM; sequence KRFYVVMWKK, SEQ ID NO:1), the negative control peptide 4NGG (300 μM; sequence KRFYGGMWKK, SEQ ID NO:2), the newly developed peptide PKHB1 (150 μM; sequence (D)K-R-F-Y-[…]-M-W-(D)K) (formula I) or an anti-CD47 mAb (in soluble conditions or in immobilized precoated plates; 5 μg/ml; clone B6H12). Alternatively, B-cells were pre-treated for 30 min before the induction of cell death with the calcium chelator BAPTA-AM (20 μM), the caspase-inhibitor Z-VAD.fmk (50 μM).
as §1

normal B-lymphocytes = experiment: PCD (Annexin-V-FITC) in normal B-lymphocytes; assay type: cell-based, human
From the text: as §2, with “Sigma-Aldrich. […]” for “Sigma-Aldrich.”
We used Annexin V-FITC (BD Biosciences) for the assessment of phosphatidylserine (PS) exposure. […] Data were analyzed using FlowJo software (TreeStar).

[2] = tested on: Hairy cell leucemia (HCL); experiment: PCD induction in primary cancer cells; assay type: cell-based
Glioma = experiment: PCD induction in primary cancer cells; assay type: cell-based
Ovarian carcinoma = experiment: PCD induction in primary cancer cells; assay type: cell-based
[3] = tested on: Chronic Lymphocytic Leukemia; experiment: PCD induction in primary cancer cells; assay type: cell-based
Hepatocellular carcinoma = experiment: PCD induction in primary cancer cells; assay type: cell-based
Bladder carcinoma = experiment: PCD induction in primary cancer cells; assay type: cell-based
Follicular lymphoma = experiment: PCD induction in primary cancer cells; assay type: cell-based
Breast carcinoma = experiment: PCD induction in primary cancer cells; assay type: cell-based
[4] = tested on: Diffuse large B cell lymphoma; experiment: PCD induction in primary cancer cells; assay type: cell-based
cancer cell lines = experiment: PCD induction in cancer cell lines (whole panel of Table 1); assay type: cell-based; settings: cancer cell lines (Table 1)
Experimental: as §1

Prostate tumor cells = experiment: PCD induction in primary cancer cells; assay type: cell-based
[5] = tested on: Lymphoplasmacytic lymphoma; experiment: PCD induction in primary cancer cells; assay type: cell-based
Marginal B cell lymphoma = experiment: PCD induction in primary cancer cells; assay type: cell-based
Mantle cell lymphoma = experiment: PCD induction in primary cancer cells; assay type: cell-based
Glioblastoma = experiment: PCD induction in primary cancer cells; assay type: cell-based
primary cancer cells = experiment: PCD induction in primary cancer cells (whole panel of Table 2); assay type: cell-based; settings: primary cancer cells (Table 2)
[6] = tested on: B cells from CLL patients; experiment: Free Ca2+ mobilization, Fura-2 AM, Till photonics; assay type: cell-based, human; settings: Fura-2 AM (FIG. 4)
Experimental: Cells, adhered in Polylysine coated glass-bottom Petri dishes, were loaded with Fura-2 AM (1 μM/30 min/37° C.). Cells were then excited by wavelengths of 340 and 380 nm and fluorescence emission of several cells was simultaneously recorded at 510 nm at a frequency of 1 Hz using a dual excitation fluorometric imaging system (TILL-Photonics) controlled by TILL-Vision software. Signals were computed into relative ratio units of the fluorescence intensity of the different wavelengths (340/380 nm). Individual fluorescence values were then analyzed with Origin software to normalize the fluorescence with the first value according to the equation (F/F0)−1, where ‘F’ is the fluorescence at specific time point and ‘F0’ is the fluorescence at time 0.

KRFYVVMWKK [4N1K, K-R-F-Y-V-V-M-W-K-K]
Cell death induction via CD47 (Acute T cell leukemia): + (more than 35% of programmed cell death induction via CD47 receptor) | Cell death induction via CD47 (JM-1): + (more than 35% of cell death induction, assessed by Annexin V labeling, after 1 h of stimulation with 400 μM of 4N1K (means of six independent experiments)) | Cell death induction via CD47 (RAJI): + (more than 35% of cell death induction, assessed by Annexin V labeling, after 1 h of stimulation with 400 μM of 4N1K (means of six independent experiments)) | Cell death induction via CD47 (MDA-MB-231): + (more than 35% of cell death induction, assessed by Annexin V labeling, after 1 h of stimulation with 400 μM of 4N1K (means of six independent experiments)) | Cell death induction via CD47 (A549): + (more than 35% of cell death induction, assessed by Annexin V labeling, after 1 h of stimulation with 400 μM of 4N1K (means of six independent experiments)) | Cell death induction via CD47 (LNCAP): + (more than 35% of cell death induction, assessed by Annexin V labeling, after 1 h of stimulation with 400 μM of 4N1K (means of six independent experiments)) | Cell death induction via CD47 (RPMI 8866): + (more than 35% of cell death induction, assessed by Annexin V labeling, after 1 h of stimulation with 400 μM of 4N1K (means of six independent experiments)) | Cell death induction via CD47 (AU-565): + (more than 35% of cell death induction, assessed by Annexin V labeling, after 1 h of stimulation with 400 μM of 4N1K (means of six independent experiments)) | Cell death induction via CD47 (RAMOS): + (more than 35% of cell death induction, assessed by Annexin V labeling, after 1 h of stimulation with 400 μM of 4N1K (means of six independent experiments)) | Cell death induction via CD47 (RPMI 8226): + (more than 35% of cell death induction, assessed by Annexin V labeling, after 1 h of stimulation with 400 μM of 4N1K (means of six independent experiments)) | Cell death induction via CD47 (U937): + (more than 35% of cell death induction, assessed by Annexin V labeling, after 1 h of stimulation with 400 μM of 4N1K (means of six independent experiments)) | Cell death induction via CD47 (CEM): + (more than 35% of cell death induction, assessed by Annexin V labeling, after 1 h of stimulation with 400 μM of 4N1K (means of six independent experiments)) | Cell death induction via CD47 (OV10): + (more than 35% of cell death induction, assessed by Annexin V labeling, after 1 h of stimulation with 400 μM of 4N1K (means of six independent experiments)) | Cell death induction via CD47 (MCF-7): + (more than 35% of cell death induction, assessed by Annexin V labeling, after 1 h of stimulation with 400 μM of 4N1K (means of six independent experiments)) | Cell death induction via CD47 (HELA): + (more than 35% of cell death induction, assessed by Annexin V labeling, after 1 h of stimulation with 400 μM of 4N1K (means of six independent experiments)) | Cell death induction via CD47 (JURKAT): + (more than 35% of cell death induction, assessed by Annexin V labeling, after 1 h of stimulation with 400 μM of 4N1K (means of six independent experiments)) | Cell death induction via CD47 (MEC-1): + (more than 35% of cell death induction, assessed by Annexin V labeling, after 1 h of stimulation with 400 μM of 4N1K (means of six independent experiments)) | Cell death induction via CD47 (HBL-100): + (more than 35% of cell death induction, assessed by Annexin V labeling, after 1 h of stimulation with 400 μM of 4N1K (means of six independent experiments)) | Cell death induction via CD47 (Colon carcinoma): + (more than 35% of programmed cell death induction via CD47 receptor) | difference in PCD response between CLL cells with functional and non-functional TP53 ([1]; 300 μM, 1 h (FIG. 2B)): Not significant difference | cell death in CLL cells ([1]; 300 μM, 1 h, Annexin-V-FITC, cohort of 14 CLL patients (FIG. 6B)): about 45% | difference in PCD between CLL cells treated or not with caspase inhibitor ZVAD ([1]; 300 μM, 1 h, z-VAD.fmk 50 μM pre-incubation (FIG. 2A)): Not significant difference | effect of pre-treatment with calcium chelator BAPTA-AM on peptide-mediated PCD ([1]; BAPTA-AM 20 μM before PCD induction (FIG. 5, FIG. 6D)): abrogates | PCD induction in CLL primary cells (in words) ([1]; soluble peptide or mAb (FIG. 1)): induces caspase-independent PCD | cytotoxicity in normal B-lymphocytes (normal B-lymphocytes): not in normal B-lymphocytes | Cell death induction via CD47 [2]: + (more than 35% of programmed cell death induction via CD47 receptor) | Cell death induction via CD47 (Glioma): + (more than 35% of programmed cell death induction via CD47 receptor) | Cell death induction via CD47 (Ovarian carcinoma): + (more than 35% of programmed cell death induction via CD47 receptor) | Cell death induction via CD47 [3]: + (more than 35% of programmed cell death induction via CD47 receptor) | Cell death induction via CD47 (Hepatocellular carcinoma): + (more than 35% of programmed cell death induction via CD47 receptor) | Cell death induction via CD47 (Bladder carcinoma): + (more than 35% of programmed cell death induction via CD47 receptor) | Cell death induction via CD47 (Follicular lymphoma): + (more than 35% of programmed cell death induction via CD47 receptor) | Cell death induction via CD47 (Breast carcinoma): + (more than 35% of programmed cell death induction via CD47 receptor) | Cell death induction via CD47 [4]: + (more than 35% of programmed cell death induction via CD47 receptor) | cell death induction (cancer cell lines): more than 35% | Cell death induction via CD47 (Prostate tumor cells): + (more than 35% of programmed cell death induction via CD47 receptor) | Cell death induction via CD47 [5]: + (more than 35% of programmed cell death induction via CD47 receptor) | Cell death induction via CD47 (Marginal B cell lymphoma): + (more than 35% of programmed cell death induction via CD47 receptor) | Cell death induction via CD47 (Mantle cell lymphoma): + (more than 35% of programmed cell death induction via CD47 receptor) | Cell death induction via CD47 (Glioblastoma): + (more than 35% of programmed cell death induction via CD47 receptor) | cell death induction (primary cancer cells): more than 35% | intracellular free Ca2+ mobilization [6]: does not come back to basal level; also recorded: potent and sustained increase of calcium mobilization

Reference: patent US10759843B2, “Method and pharmaceutical composition for use in the treatment of cancer” (priority 2012, dated 2020)
